Results: patent US9994552B2, “Compositions useful for treating disorders related to kit” (BLUEPRINT MEDICINES CORPORATION, priority 2013, dated 2018)

Legend:
D816V Kit = D816V Kit (Homo sapiens (Human), UniProt P10721, D816V); assay: Kit D816V assay at Km (Caliper electrophoretic mobility shift); type: biochemical; settings: for IC50: D816V Kit 0.5 nM, 15 uM ATP (Km), 1 uM Srctide, 25 C, 90 minutes, read-out: INH-KITD816V ENZ-KM IC50 (nM) (Num); for times more potent against the D816V mutant than against the wild-type Kit: D816V Kit versus wild-type Kit, enzyme assays at Km
Description: (§1) In order to assess the activity of chemical compounds against the relevant kinase of interest, the Caliper LifeSciences electrophoretic mobility shift technology platform is used. Fluorescently labeled substrate peptide is incubated in the presence of kinase and ATP so that a […] proportion of the peptide is phosphorylated. At the end of the reaction, the mix of phosphorylated (product) and non-phosphorylated (substrate) peptides are passed through the microfluidic system of the Caliper EZ Reader 2, under an applied potential difference. The presence of the phosphate group on the product peptide provides a difference in mass and charge between those of the substrate peptide, resulting in a separation of the substrate and product pools in the sample. As the pools pass a LEDS within the instrument, these pools are detected and resolved as separate peaks. The ratio between these peaks therefore reflects the activity of the chemical matter at that concentration in that well, under those conditions.
(§2) The reaction was stopped by the addition of 70 ul of Stop buffer (100 mM HEPES pH 7.5, 0.015% Brij 35, 35 mM EDTA and 0.2% of Coating Reagent 3 (Caliper Lifesciences)). The plate was then read on a Caliper EZReader 2 (protocol settings: −1.9 psi, upstream voltage −700, downstream voltage −3000, post sample sip 35 s).

wild type Kit = wild type Kit (Homo sapiens (Human), UniProt P10721); assay: Kit wild type assay at Km (Caliper electrophoretic mobility shift); type: biochemical; settings: wild type Kit 2 nM, 400 uM ATP (Km), 1 uM Srctide, 25 C, 90 minutes; read-out: INH-KITWT ENZ-KM IC50 (nM) (Num)
Description: as §1, §2

wild type Kit, sequence (P10721 26-976): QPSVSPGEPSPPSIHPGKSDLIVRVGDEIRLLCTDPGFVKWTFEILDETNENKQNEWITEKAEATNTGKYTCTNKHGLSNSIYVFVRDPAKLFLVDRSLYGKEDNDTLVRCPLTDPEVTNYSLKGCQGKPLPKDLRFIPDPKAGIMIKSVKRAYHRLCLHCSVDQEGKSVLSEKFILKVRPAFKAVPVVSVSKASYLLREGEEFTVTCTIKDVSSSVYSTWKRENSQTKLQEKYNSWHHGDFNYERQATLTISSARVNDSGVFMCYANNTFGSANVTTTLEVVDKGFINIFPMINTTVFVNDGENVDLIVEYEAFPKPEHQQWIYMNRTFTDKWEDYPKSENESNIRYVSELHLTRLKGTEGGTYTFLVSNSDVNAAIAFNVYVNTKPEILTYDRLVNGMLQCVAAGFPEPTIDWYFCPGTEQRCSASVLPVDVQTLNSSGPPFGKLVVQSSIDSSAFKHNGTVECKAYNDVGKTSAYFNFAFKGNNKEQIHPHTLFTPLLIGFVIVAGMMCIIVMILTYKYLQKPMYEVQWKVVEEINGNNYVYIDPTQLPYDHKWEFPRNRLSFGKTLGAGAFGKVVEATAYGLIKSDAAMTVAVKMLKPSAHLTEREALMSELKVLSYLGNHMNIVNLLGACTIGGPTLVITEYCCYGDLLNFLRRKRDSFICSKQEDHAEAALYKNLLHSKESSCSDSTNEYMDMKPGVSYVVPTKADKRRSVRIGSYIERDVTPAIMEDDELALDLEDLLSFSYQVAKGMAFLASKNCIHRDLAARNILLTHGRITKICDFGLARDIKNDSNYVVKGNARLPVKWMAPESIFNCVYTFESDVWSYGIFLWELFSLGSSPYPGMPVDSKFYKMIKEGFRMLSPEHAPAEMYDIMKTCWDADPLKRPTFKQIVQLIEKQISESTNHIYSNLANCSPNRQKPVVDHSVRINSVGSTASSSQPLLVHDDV
D816V Kit, sequence (P10721 26-976 D816V): as the sequence (P10721 26-976) above, with D791V counted along it

IC50 (D816V Kit) [nM] | IC50 (wild type Kit) [nM] | times more potent against the D816V mutant than against the wild-type Kit (D816V Kit) | SMILES
1.01 to 10 | 11 to 100 | – | CN1CCC(COc2ccc3ncnc(N4CCN(c5ncc(Cc6ccccc6)c(N)n5)CC4)c3c2)CC1 [Compound 95]
1.01 to 10 | 100 to 1000 | – | COc1cc2ncnc(N3CCN(c4ncc(Sc5ccccc5)cn4)CC3)c2cc1OC [Compound 40]
1.01 to 10 | 100 to 1000 | – | CN1CCC(COc2ccc3ncnc(N4CCN(c5ncc(Cc6ccccc6)cn5)CC4)c3c2)CC1 [Compound 87]
1.01 to 10 | 11 to 100 | – | COc1cc2ncnc(N3CCN(c4ncc(Cc5ccccc5)c(=O)[nH]4)CC3)c2cc1OC[C@@H]1CCCN(C)C1 [Compound 128]
10 to 100 | 100 to 1000 | – | COc1cc2ncnc(N3CCN(c4ncc(OC(C)c5ccccc5)cn4)CC3)c2cc1OC (stereo not drawn) [Compound 63]
> 100 | > 1000 | less than 5 times | COc1cc2ncnc(N3CCN(c4ncc(-c5ccc(C#N)cc5)cn4)CC3)c2cc1OC [Compound 19]
10 to 100 | > 1000 | – | COc1cc2ncnc(N3CCN(c4ncc(S(=O)(=O)c5ccccc5)cn4)CC3)c2cc1OC [Compound 78]
1.01 to 10 | 11 to 100 | – | COc1cc2ncnc(N3CCN(c4ncc(Sc5ccc(F)cc5)cn4)CC3)c2cc1OCC1CCN(C)CC1 [Compound 140]
> 100 | > 1000 | less than 5 times | COc1cc2ncnc(N3CCN(c4ncc(Br)c(OC)n4)CC3)c2cc1OC [Compound 41]
> 100 | > 1000 | – | COc1cc2ncnc(N3CCN(c4ncc(Nc5ccc(C(C)(C)C)cc5)cn4)CC3)c2cc1OC [Compound 82]
10 to 100 | 100 to 1000 | – | COc1cc2ncnc(N3CCN(c4ncc(Cc5ccccc5)cn4)C(C)C3)c2cc1OC (stereo not drawn) [Compound 26]
< 1 | 11 to 100 | – | COc1cc2ncnc(N3CCN(c4ncc(Cc5ccccc5)cn4)CC3)c2cc1OC[C@@H]1CCCN(C)C1 [Compound 113]
< 1 | < 10 | – | CCOc1cc2ncnc(N3CCN(c4ncc(Cc5ccccc5)c(N)n4)CC3)c2cc1OCC1CCN(C)CC1 [Compound 135]
< 1 | 11 to 100 | – | COc1cc2ncnc(N3CCN(c4ncc(Cc5ccccc5)cn4)CC3)c2cc1OCC1CCCNC1 (stereo not drawn) [Compound 97]
10 to 100 | 100 to 1000 | – | COc1cc2ncnc(N3CCN(c4ncc(NCc5ccccc5C)cn4)CC3)c2cc1OC [Compound 54]
10 to 100 | 100 to 1000 | – | COc1cc2ncnc(N3CCN(c4ncc(Nc5ccccc5C)cn4)CC3)c2cc1OC [Compound 32]
1.01 to 10 | 100 to 1000 | – | COc1cc2ncnc(N3CCN(c4ncc(OCc5ccccc5)cn4)CC3)c2cc1OC [Compound 37, 4-(4-(5-(benzyloxy)pyrimidin-2-yl)piperazin-1-yl)-6,7-dimethoxyquinazoline]
1.01 to 10 | 100 to 1000 | – | COc1cc2ncnc(N3CCN(c4ncc(Cc5cccc(F)c5)cn4)CC3)c2cc1OC [Compound 39]
< 1 | < 10 | – | CCOc1cc2ncnc(N3CCN(c4ncc(Cc5ccccc5)cn4)CC3)c2cc1OCC1CCN(C)CC1 [Compound 122]
10 to 100 | > 1000 | – | COc1cc2ncnc(N3CCN(c4ncc(NCc5cccc(C)c5)cn4)CC3)c2cc1OC [Compound 55]
> 100 | > 1000 | – | COc1cc2ncnc(N3CCN(c4ncc(Nc5ccncc5)cn4)CC3)c2cc1OC [Compound 17]
> 100 | > 1000 | at least 100 times | COc1cc2ncnc(N3CCN(c4ncc(OCC5CCCC5)cn4)CC3)c2cc1OC [Compound 18]
1.01 to 10 | 11 to 100 | – | COc1cc2ncnc(N3CCN(c4ncc(Cc5ccccc5)cn4)CC3)c2cc1OC1CCN(CCO)C1 (stereo not drawn) [Compound 118]
10 to 100 | 100 to 1000 | – | COc1cc2ncnc(N3CCN(c4ncc(Cc5cccc(OC(F)(F)F)c5)cn4)CC3)c2cc1OC [Compound 101]
10 to 100 | 100 to 1000 | – | COc1cc2ncnc(N3CCN(c4ncc(Cc5ccccc5C)cn4)CC3)c2cc1OC [Compound 25]

IC50 (D816V Kit) [nM] | IC50 (wild type Kit) [nM] | times more potent against the D816V mutant than against the wild-type Kit (D816V Kit) | SMILES
1.01 to 10 | 11 to 100 | – | COc1cc2ncnc(N3CCN(c4ncc(Cc5ccccc5)cn4)CC3)c2cc1OC[C@H]1CCCN(C)C1 [Compound 115]
< 1 | < 10 | less than 5 times | CCOc1cc2ncnc(N3CCN(c4ncc(Cc5ccccc5)c(=O)[nH]4)CC3)c2cc1OCC1CCN(C)CC1 [Compound 138]
1.01 to 10 | 100 to 1000 | – | COc1cc2ncnc(N3CCN(c4ncc(Nc5ccc(Cl)cc5)cn4)CC3)c2cc1OC [Compound 70]
10 to 100 | – | – | COc1cc2c(N3CCN(c4ncc(Cc5ccccc5)cn4)CC3)ncnc2cc1OC(F)F [Compound 72]
< 1 | < 10 | – | COc1cc2ncnc(N3CCN(c4ncc(Cc5ccccc5)cn4)CC3)c2cc1OCC1(F)CCN(C)CC1 [Compound 131]
10 to 100 | > 1000 | – | COc1ccc2c(N3CCN(c4ncc(OCc5ccccc5)cn4)CC3)ncnc2c1 [Compound 8]
1.01 to 10 | 100 to 1000 | – | COc1cc2ncnc(N3CCN(c4ncc(CCc5ccccc5)cn4)CC3)c2cc1OC [Compound 24]
1.01 to 10 | 100 to 1000 | – | COc1cc2ncnc(N3CCN(c4ncc(OCc5cccs5)cn4)CC3)c2cc1OC [Compound 43]
1.01 to 10 | 11 to 100 | – | COc1cc2ncnc(N3CCN(c4ncc(Cc5ccccc5)cn4)CC3)c2cc1OCC1CCN(CCO)CC1 [Compound 139]
< 1 | 11 to 100 | – | COc1cc2ncnc(N3CCN(c4ncc(Cc5ccccc5)cn4)CC3)c2cc1OC[C@H]1CNCCO1 [Compound 104]
10 to 100 | 100 to 1000 | – | COc1cc2ncnc(N3CCN(c4ncc(NCc5ccccc5)cn4)CC3)c2cc1OC [Compound 34, N-benzyl-2-(4-(6,7-dimethoxyquinazolin-4-yl)piperazin-1-yl)pyrimidin-5-amine]
1.01 to 10 | 11 to 100 | less than 5 times | COc1cc2ncnc(N3CCN(c4ncc(Cc5ccccc5)cn4)CC3)c2cc1OC1CCN(CCO)CC1 [Compound 129]
> 100 | – | – | COc1cc2ncnc(N3CCN(c4ncc(NCc5ccc6c(c5)OCO6)cn4)CC3)c2cc1OC [Compound 83]
10 to 100 | > 1000 | at least 100 times | COc1ccc(COc2cnc(N3CCN(c4ncnc5cc(OC)c(OC)cc45)CC3)nc2)cc1 [Compound 77]
> 100 | > 1000 | – | COc1ccc2ncnc(N3CCN(c4ncc(OCc5ccccc5)cn4)CC3)c2c1 [Compound 10]
1.01 to 10 | 100 to 1000 | – | COc1cc2ncnc(N3CCN(c4ncc(Cc5ccc(C#N)cc5)cn4)CC3)c2cc1OC [Compound 45]
1.01 to 10 | < 10 | – | COc1cc2ncnc(N3CCN(c4ncc(Cc5ccccc5)c(=O)[nH]4)CC3)c2cc1OCC1CN(C)CCO1 (stereo not drawn) [Compound 130]
> 100 | > 1000 | – | COc1cc2ncnc(N3CCN(c4ncc(OCc5cc(Cl)cc(Cl)c5)cn4)CC3)c2cc1OC [Compound 103]
1.01 to 10 | 11 to 100 | – | COc1cc2ncnc(N3CCN(c4ncc(Nc5ccc(F)cc5)cn4)CC3)c2cc1OCC1CCN(C)CC1 [Compound 132]
10 to 100 | 100 to 1000 | – | COc1cc2ncnc(N3CCN(c4ncc(Cc5cccc(C#N)c5)cn4)CC3)c2cc1OC [Compound 46]
10 to 100 | > 1000 | – | COc1cc2ncnc(N3CCN(c4ncc(OCc5ccccc5)cn4)C(C)C3)c2cc1OC (stereo not drawn) [Compound 66]
< 1 | < 10 | – | COc1cc2ncnc(N3CCN(c4ncc(Cc5ccccc5)c(=O)[nH]4)CC3)c2cc1OCC1CCN(C)CC1 [Compound 127]
> 100 | > 1000 | – | COc1cc2ncnc(N3CCN(c4nccc(Cc5ccccc5)n4)CC3)c2cc1OC [Compound 12]
> 100 | > 1000 | – | COc1cc2ncnc(N3CCN(c4ncc(OCc5ccc(C(F)(F)F)cc5)cn4)CC3)c2cc1OC [Compound 102, 6,7-dimethoxy-4-(4-(5-((4-(trifluoromethyl)benzyl)oxy)pyrimidin-2-yl)piperazin-1-yl)quinazoline]
1.01 to 10 | 11 to 100 | – | COc1cc2ncnc(N3CCN(c4ncc(Cc5ccccc5)cn4)CC3)c2cc1OC1CCNC1 (stereo not drawn) [Compound 80]

SMILES | IC50 (D816V Kit) [nM] | IC50 (wild type Kit) [nM] | times more potent against the D816V mutant than against the wild-type Kit (D816V Kit)
COc1cc2ncnc(N3CC4CCC(C3)N4c3ncc(Cc4ccccc4)cn3)c2cc1OCC1CNCCO1 (stereo not drawn) [Compound 121] | < 1 | 11 to 100 | –
COc1cc2ncnc(N3C[C@H]4CC[C@@H](C3)N4c3ncc(Cc4ccccc4)cn3)c2cc1OC [Compound 48, 4-((1R,5S)-8-(5-Benzylpyrimidin-2-yl)-3,8-diazabicyclo[3.2.1]octan-3-yl)-6,7-dimethoxyquinazoline] | 1.01 to 10 | 11 to 100 | –
